Results from patent publication US12473250B2, “Molecular design of new antibiotics and antibiotic adjuvants against MCR strains” (priority 2019, dated 2025).
Entries after “also recorded” stand apart in the source; their conditions may differ.

Assays:
[1] = tested on: colistin resistant MCR (−) E. Cloacae strain 7023456439; test: Synergy study: colistin MIC in the presence of compound; format: cell-based; settings: strain 7023456439 E. Cloacae
In short: (§1)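 After 24 hours, MIC was read as the lowest concentration without visible growth. Drugs were tested singly and in combination by CLSI broth microdilution, equal-amount colistin:LC compound mixtures serially diluted 2-fold at a fixed synergy concentration.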

[2] = tested on: colistin resistant MCR (−) E. Coli strains; test: as above; format: cell-based
In short: as §1

[3] = tested on: KLPN multi-drug resistant strains; test: Synergy of LC100 with colistin against multi-drug resistant strains (Table 5); format: cell-based, Klebsiella pneumonia
Experimental: (§2) The MICs of the individual drugs and LC compound in combinations were determined using the broth microdilution technique as recommended by the CLSI whereby the two anti-microbial agents were added in an equal amount. (e.g.: 50 μL of Colistin: 50 μL of LC compounds). Diluted media containing compounds and antibiotics will be serially diluted 2-fold, and LC compounds and antibiotics alone or in combination will be assayed at fixed synergy concentration. In all cases, the lowest concentration at which no visible growth occurred was be recorded to be the MIC value of individual and combined antibacterial agents. The results were obtained after 24 hours of incubation.

[4] = tested on: ENT CLOACAE multi-drug resistant strains; test: as above; format: cell-based, E. cloacae
Experimental: as §2

[5] = tested on: 6083655967 [MCR 1+; E.Coli]; test: Synergistic study between LC100 or LC101 with B2088; format: cell-based; settings: for Combination MIC: strain 6083655967, value of each component
Experimental: as §2
Using the combination of LC100 and colistin, the activity of a broad range of strains was further tested (Table 7).

MCR-1 protein = biological target: T1, MCR-1 protein (Escherichia coli, UniProt A0A0R6L508); test: Fluorescence quenching of MCR-1 protein; format: binding; settings: autofluorescence at 323 nm; increasing LC100 concentration
T1 construct: purchased Bioprocessing technology institute, A*STAR (Singapore, Singapore)
T1 sequence (A0A0R6L508 whole entry): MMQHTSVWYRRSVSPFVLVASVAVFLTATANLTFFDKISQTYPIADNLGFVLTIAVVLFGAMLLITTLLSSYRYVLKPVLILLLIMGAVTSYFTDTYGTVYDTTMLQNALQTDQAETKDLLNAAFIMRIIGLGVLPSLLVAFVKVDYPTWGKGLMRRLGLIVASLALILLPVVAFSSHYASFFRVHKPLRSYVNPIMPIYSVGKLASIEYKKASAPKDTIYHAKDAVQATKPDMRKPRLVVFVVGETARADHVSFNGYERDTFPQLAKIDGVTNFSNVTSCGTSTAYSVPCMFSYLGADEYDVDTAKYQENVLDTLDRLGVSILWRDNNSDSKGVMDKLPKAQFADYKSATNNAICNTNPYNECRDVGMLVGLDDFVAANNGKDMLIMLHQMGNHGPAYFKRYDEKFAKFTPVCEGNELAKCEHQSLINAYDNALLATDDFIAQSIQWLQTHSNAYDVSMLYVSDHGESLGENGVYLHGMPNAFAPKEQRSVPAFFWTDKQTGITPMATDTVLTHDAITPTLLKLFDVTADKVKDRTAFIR
Experimental: However, EtBr is membrane impermeable, which means that it can only enter the bacterial cell and bind to DNA and emit fluorescence only when both the bacterial outer and inner membranes are perturbed. […] It is also possible that LC100 may have other targets. One possible target is the MCR-1 protein. To understand the interaction of LC100 and the MCR-1 protein, the fluorescence of MCR-1 protein in the presence of different concentration of LC100 was measured. MCR-1 protein contains several tryptophan residues, and autofluoresces at 323 nm.

[6] = Calcein leakage from large unilamellar vesicles; settings: vesicles of 100 nm, DOPE/DOPG=3/1
From the text: FIG. 20 refers to a graph showing calcein leakage of LC100 and LC101 using large unilamellar vesicles of 100 nm. The lipid composition of the vesicle is DOPE/DOPG=3/1, mimicking the bacterial inner membrane. […] Further increase of LC100 or LC101 leads to decrease in the florescence because of a fluorescence quenching effect.

In the case of `CCN(CC)CCCCOc1ccc(/C=C/C(=O)c2ccc(OCCCCN(CC)CC)c(CC=C(C)C)c2O)cc1` [LC100], the “Colistin MIC in the presence of the compound” value (“Colistin MIC … of the compound” for short) ([1]; compound at 2 μg) is reported as less than 0.0975 µg/mL, the “Colistin MIC … of the compound” value ([1]; compound at 5 μg (Table 2a: 5 ug/ml)) is reported as 0.195 µg/mL and the “Colistin MIC … of the compound” value ([1]; compound at 10 μg (Table 2a: 10 ug/ml)) is reported as less than 0.098 µg/mL. The “Colistin MIC … of the compound” value ([1]; compound at 10 μg (Table 2a: 10 ug/ml), listed as LC 100) was less than 0.0975 µg/mL, the “colistin level to which E. coli became sensitive in the presence of LC100” value ([2]; resistant bacteria without mcr-1) was less than 0.5 µg/mL and the “Colistin MIC … of the compound” value ([2]; strain 6083672926, MCR(−), compound at 2 μg) was less than 0.0975 µg/mL. For the same compound, the “Colistin MIC … of the compound” value ([2]; strain 6083672926, MCR(−), compound at 5 μg (Table 2a: 5 ug/ml)) was 0.195 µg/mL, the “Colistin MIC … of the compound” value ([2]; strain 6083672926, MCR(−), compound at 10 μg (Table 2a: 10 ug/ml)) was less than 0.098 µg/mL and the “Colistin MIC … of the compound” value ([2]; strain 6083672926, MCR(−), compound at 10 μg (Table 2a: 10 ug/ml), listed as LC 100) was less than 0.0975 µg/mL. The “Colistin MIC … of the compound” value ([2]; strain 7023446108, MCR(−), compound at 2 μg) was less than 0.0975 µg/mL, the “Colistin MIC … of the compound” value ([2]; strain 7023446108, MCR(−), compound at 5 μg (Table 2a: 5 ug/ml)) was 0.195 µg/mL and the “Colistin MIC … of the compound” value ([2]; strain 7023446108, MCR(−), compound at 10 μg (Table 2a: 10 ug/ml)) was less than 0.098 µg/mL. For the same compound, the “Colistin MIC … of the compound” value ([2]; strain 7023446108, MCR(−), compound at 10 μg (Table 2a: 10 ug/ml), listed as LC 100) was less than 0.0975 µg/mL, the “Colistin MIC … of the compound” value ([2]; strain 7033607097, MCR(−), compound at 2 μg) was less than 0.0975 µg/mL and the “Colistin MIC … of the compound” value ([2]; strain 7033607097, MCR(−), compound at 5 μg (Table 2a: 5 ug/ml)) was 0.195 µg/mL. For the same compound, the “Colistin MIC … of the compound” value ([2]; strain 7033607097, MCR(−), compound at 10 μg (Table 2a: 10 ug/ml)) was less than 0.098 µg/mL, the “Colistin MIC … of the compound” value ([2]; strain 7033607097, MCR(−), compound at 10 μg (Table 2a: 10 ug/ml), listed as LC 100) was less than 0.0975 µg/mL and the “Colistin MIC in the presence of LC100” value ([3]; strain KLPN 8852, LC 100 2 μg) was greater than 25 µg/mL. The “Colistin MIC in the presence of LC100” value ([3]; strain KLPN 8852, LC 100 5 μg) was 25 µg/mL, the “Colistin MIC in the presence of LC100” value ([3]; strain KLPN 15588, LC 100 2 μg) was 0.39 µg/mL and the “Colistin MIC in the presence of LC100” value ([3]; strain KLPN 15588, LC 100 5 μg) was less than 0.0975 µg/mL. For the same compound, the “Colistin MIC in the presence of LC100” value ([3]; strain KLPN 24076, LC 100 2 μg) was 0.39 µg/mL, the “Colistin MIC in the presence of LC100” value ([3]; strain KLPN 24076, LC 100 5 μg) was less than 0.0975 µg/mL and the “Colistin MIC in the presence of LC100” value ([3]; strain KLPN 27025, LC 100 2 μg) was 0.195 µg/mL. For the same compound, the “Colistin MIC in the presence of LC100” value ([3]; strain KLPN 27025, LC 100 5 μg) was less than 0.0975 µg/mL, the “Colistin MIC in the presence of LC100” value ([4]; strain ENT CLOACAE 6780, LC 100 2 μg) was 0.39 µg/mL and the “Colistin MIC in the presence of LC100” value ([4]; strain ENT CLOACAE 6780, LC 100 5 μg) was less than 0.0975 µg/mL. For the same compound, the “Colistin MIC in the presence of LC100” value ([4]; strain ENT CLOACAE 21489, LC 100 2 μg) was 0.195 µg/mL, the “Colistin MIC in the presence of LC100” value ([4]; strain ENT CLOACAE 21489, LC 100 5 μg) was less than 0.0975 µg/mL and the “Colistin MIC in the presence of LC100” value ([4]; strain ENT CLOACAE 30063, LC 100 2 μg) was 25 µg/mL. The “Colistin MIC in the presence of LC100” value ([4]; strain ENT CLOACAE 30063, LC 100 5 μg) was 6.25 µg/mL, the “Colistin MIC in the presence of LC100” value ([4]; strain ENT CLOACAE 44095, LC 100 2 μg) was greater than 25 µg/mL and the “Colistin MIC in the presence of LC100” value ([4]; strain ENT CLOACAE 44095, LC 100 5 μg) was greater than 25 µg/mL. The “Combination MIC” value ([5]; combination B2088 (Ac) + LC 100) was 2 µg/mL, the “Combination MIC” value ([5]; combination B2088 + LC 100) was 1 µg/mL and the “level of synergistic effect with B2088” value ([5]; killing E. coli with the mcr-1 mutation) was 1 µg/mL. For the same compound, the “fluorescence of MCR-1 protein (quenching)” value (MCR-1 protein) was “the fluorescence decreases” and the “calcein leakage / disruption of vesicles” value [6] was “significant florescence was detected; also recorded: disrupts liposomes”.
